Publication PMC7413254 (Nature Communications, 2020)

Experiments:
Assay type in all cases: cell-based
PfCRT^Dd2 [1] = molecular target: T1, PfCRT^Dd2 (Plasmodium falciparum, UniProt Q9N623, A220S/I356T/K76T/M74I/N326S/N75E/Q271E/R371I); assay: cell-based; conditions: for PfCRT-mediated [3H]CQ transport, trans-stimulation (% PfCRTDd2 control): PfCRTDd2 oocytes, normalised to oocyte type control; for [3H]CQ transport (% PfCRTDd2 control), trans-stimulation, PfCRTDd2: PfCRT-mediated component (background subtracted), mean ± SEM, SEM
T1 sequence (Q9N623 whole entry A220S/I356T/K76T/M74I/N326S/N75E/Q271E/R371I): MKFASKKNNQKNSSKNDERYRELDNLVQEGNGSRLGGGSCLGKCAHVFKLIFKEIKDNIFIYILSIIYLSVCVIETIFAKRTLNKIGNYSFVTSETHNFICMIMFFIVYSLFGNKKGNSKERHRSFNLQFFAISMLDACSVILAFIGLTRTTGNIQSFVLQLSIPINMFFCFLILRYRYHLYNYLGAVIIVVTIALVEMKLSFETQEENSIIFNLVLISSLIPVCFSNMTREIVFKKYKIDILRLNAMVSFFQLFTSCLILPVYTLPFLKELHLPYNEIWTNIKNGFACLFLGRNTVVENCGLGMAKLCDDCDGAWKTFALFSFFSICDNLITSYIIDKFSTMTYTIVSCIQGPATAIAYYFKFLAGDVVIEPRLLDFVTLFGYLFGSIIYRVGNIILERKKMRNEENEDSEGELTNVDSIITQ
Experimental: (§1) Unless specified otherwise, the transport assays were conducted over 1.5 h at 27.5 °C and the reaction buffer was ND96 (96 mM NaCl, 2 mM KCl, 1 mM MgCl2, 1.8 mM CaCl2, 10 mM MES and 10 mM Tris-base) at pH 5.5.
(§2) The intracellular concentrations were calculated using previous estimates of the volume of stage V–VI oocytes (~400 nL[60]). […] The oocytes were injected with VF-6 suspended in 25 nL ND96 buffer adjusted to pH 5.0, 5.5, 6.0 or 7.0, which corresponded to the injection of 2.5–250 fmol of H^+. The Na^+-dependence of the trans-stimulatory effect of VF-6 was assessed by injecting the oocytes with VF-6 suspended in ND96 buffer (pH 5.5) or a Na^+-free version of this buffer (the Na^+ was replaced with choline).
(§3) At least four independent experiments were performed (on different days and using oocytes from different frogs), and within each experiment measurements were made from ten oocytes per treatment.

PfCRT^Ecu1110 [2] = molecular target: T2, PfCRT^Ecu1110 (Plasmodium falciparum, UniProt Q9N623, A220S/I356L/K76T/N326D); assay: cell-based; conditions: for PfCRT-mediated [3H]CQ transport, trans-stimulation (% PfCRTEcu1110 control): PfCRTEcu1110 oocytes, normalised to oocyte type control; for [3H]CQ transport (% PfCRTDd2 control), trans-stimulation, PfCRTEcu1110: PfCRT-mediated component (background subtracted), sheet title says normalised to PfCRTDd2 control, mean ± SEM, SEM
T2 sequence (Q9N623 whole entry A220S/I356L/K76T/N326D): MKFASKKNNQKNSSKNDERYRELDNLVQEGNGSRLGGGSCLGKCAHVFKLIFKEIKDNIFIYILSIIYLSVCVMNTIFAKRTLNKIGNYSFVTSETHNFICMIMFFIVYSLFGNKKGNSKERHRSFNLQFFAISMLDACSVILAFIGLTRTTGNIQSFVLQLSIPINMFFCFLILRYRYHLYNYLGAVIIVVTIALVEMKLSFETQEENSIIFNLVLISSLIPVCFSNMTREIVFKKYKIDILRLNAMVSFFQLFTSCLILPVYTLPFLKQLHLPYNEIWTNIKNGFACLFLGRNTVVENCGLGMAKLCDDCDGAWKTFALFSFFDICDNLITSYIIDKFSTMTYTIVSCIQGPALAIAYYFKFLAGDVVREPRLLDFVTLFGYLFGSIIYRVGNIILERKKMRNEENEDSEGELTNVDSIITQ
Experimental: as §1, §2, §3

PfCRT^3D7 = PfCRT^3D7 (Plasmodium falciparum, UniProt Q8IBZ9); assay: cell-based; conditions: PfCRT3D7 oocytes, normalised to oocyte type control
Sequence of PfCRT^3D7 (Q8IBZ9 59-398): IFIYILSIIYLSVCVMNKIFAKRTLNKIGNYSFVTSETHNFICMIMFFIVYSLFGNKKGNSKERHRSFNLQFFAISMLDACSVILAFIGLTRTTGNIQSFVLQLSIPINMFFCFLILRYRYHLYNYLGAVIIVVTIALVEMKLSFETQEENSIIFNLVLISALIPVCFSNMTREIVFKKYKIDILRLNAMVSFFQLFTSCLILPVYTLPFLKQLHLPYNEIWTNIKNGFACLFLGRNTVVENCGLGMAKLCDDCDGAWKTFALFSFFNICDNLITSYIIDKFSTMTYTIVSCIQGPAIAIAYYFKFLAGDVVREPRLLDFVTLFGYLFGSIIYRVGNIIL
Experimental: as §1, §2, §3

PfCRT^Dd2 [3] = molecular target: T1, PfCRT^Dd2; assay: [3H]CQ uptake into Xenopus oocytes, cis-inhibition by unlabelled solute; conditions: PfCRTDd2 oocytes, background [3H]CQ accumulation subtracted, normalised to oocyte type control
Source text: (§4) The orientation of PfCRT in the parasite’s DV membrane, and also in the oocyte plasma membrane, is such that its N- and C-termini extend into the cytosol. The oocytes were suspended in a reaction buffer adjusted to pH 5.5 to mimic the pH of the DV lumen[1],[2]. In this scenario, the transport of a substrate via PfCRT from the acidic extracellular solution into the oocyte cytosol[15] is analogous to the parasite’s PfCRT-mediated efflux of a substrate from the acidic DV and into the cytosol. Unless specified otherwise, this is the direction in which substrate transport was measured in the oocyte assays.
as §1
(§5) Ten oocytes were washed twice with the relevant ND96 buffer. […] The assay was terminated by removing the reaction buffer and washing the oocytes with ice-cold ND96 buffer. The oocytes were lysed in 10% (w/v) sodium dodecyl sulfate (SDS) and the radioactivity accumulated within each oocyte was measured with a MicroBeta^2 microplate liquid scintillation analyser (PerkinElmer).
as §3

PfCRT^Ecu1110 [4] = molecular target: T2, PfCRT^Ecu1110; assay: as above; conditions: for PfCRT-mediated [3H]CQ transport, cis-inhibition (% PfCRTEcu1110 control): PfCRTEcu1110 oocytes, background [3H]CQ accumulation subtracted, normalised to oocyte type control; for [3H]CQ transport (% PfCRTEcu1110 control), cis-inhibition, PfCRTEcu1110: PfCRT-mediated component (background subtracted), sheet title says normalised to PfCRTDd2 control, mean ± SEM, SEM
Source text: as §4, §1, §5, §3

[5] = [test solute]i = 5 mM (intracellular)
[6] = [test solute]i = 45 mM (intracellular; 30 mM for some solutes due to solubility)
[7] = [test solute]i = 5 mM (injected)
[8] = [test solute]i = 45 mM (30 mM for some solutes due to solubility)

| Substance | PfCRT-mediated [3H]CQ transport, trans-stimulation (% PfCRTDd2 control) (PfCRT^Dd2 [1]; [5]) | PfCRT-mediated [3H]CQ transport, trans-stimulation (% PfCRTDd2 control) (PfCRT^Dd2 [1]; [6]) | [3H]CQ transport (% PfCRTDd2 control), trans-stimulation, PfCRTDd2 (PfCRT^Dd2 [1]; [7]) | [3H]CQ transport (% PfCRTDd2 control), trans-stimulation, PfCRTDd2 (PfCRT^Dd2 [1]; [8]) | PfCRT-mediated [3H]CQ transport, trans-stimulation (% PfCRTEcu1110 control) (PfCRT^Ecu1110 [2]; [5]) | PfCRT-mediated [3H]CQ transport, trans-stimulation (% PfCRTEcu1110 control) (PfCRT^Ecu1110 [2]; [6]) | [3H]CQ transport (% PfCRTDd2 control), trans-stimulation, PfCRTEcu1110 (PfCRT^Ecu1110 [2]; [7]) | [3H]CQ transport (% PfCRTDd2 control), trans-stimulation, PfCRTEcu1110 (PfCRT^Ecu1110 [2]; [8]) | PfCRT-mediated [3H]CQ transport, trans-stimulation (% PfCRT3D7 control) (PfCRT^3D7; [5]) | PfCRT-mediated [3H]CQ transport, trans-stimulation (% PfCRT3D7 control) (PfCRT^3D7; [6]) | PfCRT-mediated [3H]CQ transport, cis-inhibition (% PfCRTDd2 control) (PfCRT^Dd2 [3]; [test solute] = 0.5 mM) | PfCRT-mediated [3H]CQ transport, cis-inhibition (% PfCRTDd2 control) (PfCRT^Dd2 [3]; [test solute] = 1 mM) | PfCRT-mediated [3H]CQ transport, cis-inhibition (% PfCRTDd2 control) (PfCRT^Dd2 [3]; [test solute] = 2 mM) | PfCRT-mediated [3H]CQ transport, cis-inhibition (% PfCRTEcu1110 control) (PfCRT^Ecu1110 [4]; [test solute] = 0.5 mM) | PfCRT-mediated [3H]CQ transport, cis-inhibition (% PfCRTEcu1110 control) (PfCRT^Ecu1110 [4]; [test solute] = 1 mM) | PfCRT-mediated [3H]CQ transport, cis-inhibition (% PfCRTEcu1110 control) (PfCRT^Ecu1110 [4]; [test solute] = 2 mM) | [3H]CQ transport (% PfCRTEcu1110 control), cis-inhibition, PfCRTEcu1110 (PfCRT^Ecu1110 [4]; [test solute] = 0.5 mM) | [3H]CQ transport (% PfCRTEcu1110 control), cis-inhibition, PfCRTEcu1110 (PfCRT^Ecu1110 [4]; [test solute] = 1 mM) | [3H]CQ transport (% PfCRTEcu1110 control), cis-inhibition, PfCRTEcu1110 (PfCRT^Ecu1110 [4]; [test solute] = 2 mM) |
| --- | --- | --- | --- | --- | --- | --- | --- | --- | --- | --- | --- | --- | --- | --- | --- | --- | --- | --- | --- |
| FPHFDLS [FS-7] | 95 ± 4.2 % PfCRTDd2 control | 98 ± 4.1 % PfCRTDd2 control | 95 ± 4.2 % PfCRTDd2 control | 98 ± 4.1 % PfCRTDd2 control | 99 ± 3.6 % PfCRTEcu1110 control | 98 ± 4.3 % PfCRTEcu1110 control | 30 ± 1.3 % PfCRTEcu1110 control | 30 ± 1.4 % PfCRTEcu1110 control | 96 ± 4.6 % PfCRT3D7 control | 99 ± 2.7 % PfCRT3D7 control | 30 ± 3.7 % PfCRTDd2 control | 19 ± 0.7 % PfCRTDd2 control | 11 ± 0.7 % PfCRTDd2 control | 39 ± 2.5 % PfCRTEcu1110 control | 31 ± 1.7 % PfCRTEcu1110 control | 17 ± 0.8 % PfCRTEcu1110 control | 12 ± 0.4 % PfCRTEcu1110 control | 10 ± 0.2 % PfCRTEcu1110 control | 5.0 ± 0.04 % PfCRTEcu1110 control |
| FSDGLA [FA-6] | 102 ± 6.2 % PfCRTDd2 control | 98 ± 4.2 % PfCRTDd2 control | 102 ± 6.2 % PfCRTDd2 control | 98 ± 4.2 % PfCRTDd2 control | 98 ± 4.5 % PfCRTEcu1110 control | 96 ± 4.7 % PfCRTEcu1110 control | 30 ± 1.4 % PfCRTEcu1110 control | 29 ± 1.3 % PfCRTEcu1110 control | 134 ± 3.2 % PfCRT3D7 control | 190 ± 4.6 % PfCRT3D7 control | 29 ± 0.1 % PfCRTDd2 control | 17 ± 0.7 % PfCRTDd2 control | 10 ± 0.3 % PfCRTDd2 control | 60 ± 0.7 % PfCRTEcu1110 control | 42 ± 2.5 % PfCRTEcu1110 control | 32 ± 0.5 % PfCRTEcu1110 control | 19 ± 0.1 % PfCRTEcu1110 control |  | 10 ± 0.3 % PfCRTEcu1110 control |
| GLAHL [GL-5] | 98 ± 4.1 % PfCRTDd2 control | 98 ± 3.3 % PfCRTDd2 control | 98 ± 4.1 % PfCRTDd2 control | 98 ± 3.3 % PfCRTDd2 control | 96 ± 4.1 % PfCRTEcu1110 control | 99 ± 3.6 % PfCRTEcu1110 control | 29 ± 1.4 % PfCRTEcu1110 control | 30 ± 1.3 % PfCRTEcu1110 control | 97 ± 3.5 % PfCRT3D7 control | 94 ± 4.6 % PfCRT3D7 control | 62 ± 1.1 % PfCRTDd2 control | 50 ± 3.5 % PfCRTDd2 control | 20 ± 1.3 % PfCRTDd2 control | 68 ± 2.5 % PfCRTEcu1110 control | 58 ± 3.5 % PfCRTEcu1110 control | 28 ± 2.0 % PfCRTEcu1110 control |  | 18 ± 0.1 % PfCRTEcu1110 control | 9.0 ± 0.01 % PfCRTEcu1110 control |
| GTFAT [GT-5] | 96 ± 3.5 % PfCRTDd2 control | 96 ± 4.2 % PfCRTDd2 control | 96 ± 3.5 % PfCRTDd2 control | 96 ± 4.2 % PfCRTDd2 control | 98 ± 4.6 % PfCRTEcu1110 control | 98 ± 4.4 % PfCRTEcu1110 control | 30 ± 1.6 % PfCRTEcu1110 control | 30 ± 1.7 % PfCRTEcu1110 control | 96 ± 3.5 % PfCRT3D7 control | 96 ± 3.4 % PfCRT3D7 control | 62 ± 2.0 % PfCRTDd2 control | 50 ± 2.2 % PfCRTDd2 control | 20 ± 1.1 % PfCRTDd2 control | 51 ± 1.1 % PfCRTEcu1110 control | 41 ± 2.5 % PfCRTEcu1110 control | 30 ± 0.4 % PfCRTEcu1110 control |  | 13 ± 0.3 % PfCRTEcu1110 control | 9.0 ± 0.1 % PfCRTEcu1110 control |
